The values below come from patent publication US8039499B2, “Ester compound and its use” (Sumitomo Chemical Company, Limited, priority 2006, dated 2011).

One experiment concerns adult houseflies. The experiment in a line: Test Example 2: housefly knock down, spray in cubic glass chamber. The format is in vivo. The settings on record: active ingredient concentration 0.00625%, 0.7 ml sprayed, counted 10 minutes after spraying, repeated twice. As to the method: The formulation of the sample compound obtained in Formulation Example 7 was diluted with dichloromethane/deodorized kerosene=1/9 mixed solution so that the active ingredient concentration was 0.00625%, to prepare a test solution.
Ten adult houseflies (4 or 5 males and 4 or 5 females each) were left in a cubic glass chamber (70 cm at each side), and 0.7 ml of the test solution was sprayed through a small window at the side of the chamber using a spray gun at a spraying pressure of 0.9 kg/cm^2. 10 minutes after spraying, the number of knocked-down insects was counted (repeated twice).

The subject of experiment [1] is German cockroach (Blattella germanica). Put plainly: Test Example 3: German cockroach knock down, spray in test chamber. In kind it is in vivo. The settings on record: active ingredient concentration 0.00625%, 1.5 ml sprayed, counted 1 minutes after spraying, repeated twice. As to the method: The formulation of the sample compound obtained in Formulation Example 7 was diluted with dichloromethane/deodorized kerosene=1/9 mixed solution so that the active ingredient concentration was 0.00625%, to prepare a test medicinal solution.
A container (8.75 cm in diameter, 7.5 cm in height, bottom covered 16-mesh iron net and inside wall painted butter for preventing tested pill bugs to escape) having 10 German cockroach (5 males and 5 females, Blattella germanica) therein was set on the bottom of a test chamber (46 cm×46 cm, height: 70 cm). From a height of 60 cm above the upper surface of the container, 1.5 ml of the test solution was sprayed using a spray gun at a spraying pressure of 0.4 kg/cm^2. After 30 seconds, the German cockroach were taken out and put into a clean plastic cup having 8.2 cm in diameter. The lid having holes was covered on the cup. 1 minutes after spraying, the number of knocked-down insects was counted (repeated twice).

In the case of `C#CCN1CC(=O)N(COC(=O)[C@@H]2[C@@H](/C=C(\C)C=NOC)C2(C)C)C1=O` [present compound (1), 2,5-dioxo-3-(2-propynyl)imidazolidin-1-ylmethyl (1R)-trans-3-[(E)-3-methoxyimino-2-methyl-1-propenyl]-2,2-dimethylcyclopropanecarboxylate], the “knock down ratio of sample insects” value (with adult houseflies; in experiment [1]) was 100% in each case. Take `C#CCc1ccc(COC(=O)[C@@H]2[C@@H](/C=C(\C)C=NOC)C2(C)C)o1` [comparative compound (B), 5-(2-propynyl)furan-2-ylmethyl (1R)-trans-3-[(E)-3-methoxyimino-2-methyl-1-propenyl]-2,2-dimethylcyclopropanecarboxylate]: the “knock down ratio of sample insects” value in experiment [1] came to 0%.

With `C#CCN1CC(=O)N(COC(=O)[C@@H]2[C@@H](C=C(C)C)C2(C)C)C1=O` [comparative compound (A), 2,5-dioxo-3-(2-propynyl)imidazolidine-1-ylmethyl (1R)-trans-2,2-dimethyl-3-(2-methyl-1-propenyl)cyclopropane carboxylate], the “knock down ratio of sample insects” value in the experiment with adult houseflies came to 42%.
